# Laboratory results published in patent US8461328B2, “Tricyclic heterocyclic compounds, compositions and methods of use thereof” (Genentech, Inc., priority 2010, dated 2013).
# What was measured:
# Assay type in all cases: biochemical
# TYK2 = target: T1, TYK2 (Homo sapiens, UniProt P29597); assay: TYK2 inhibition (Table 4)
# T1 construct: made in house; host or cells: SF9 insect cells (baculovirus)
# T1 sequence (P29597 873-1187): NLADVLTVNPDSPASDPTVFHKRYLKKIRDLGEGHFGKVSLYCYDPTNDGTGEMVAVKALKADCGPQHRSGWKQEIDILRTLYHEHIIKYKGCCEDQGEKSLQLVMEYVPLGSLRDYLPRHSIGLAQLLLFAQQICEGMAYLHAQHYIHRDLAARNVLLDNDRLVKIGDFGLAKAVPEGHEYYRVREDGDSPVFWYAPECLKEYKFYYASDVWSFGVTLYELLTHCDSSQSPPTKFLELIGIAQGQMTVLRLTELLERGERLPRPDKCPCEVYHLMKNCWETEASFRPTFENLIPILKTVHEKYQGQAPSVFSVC
# JAK3 = target: T2, JAK3 (Homo sapiens, UniProt P52333); assay: JAK3 inhibition (Table 4); conditions: read-out: JAK3 Ki
# T2 construct: made in house; host or cells: SF9 insect cells (baculovirus)
# JAK1 = target: T3, JAK1 (Homo sapiens, UniProt P23458); assay: JAK1 inhibition (Table 4); conditions: read-out: JAK1 Ki
# T3 construct: made in house; host or cells: SF9 insect cells (baculovirus)
# JAK2 = target: T4, JAK2 (Homo sapiens, UniProt O60674); assay: JAK2 inhibition (Table 4); conditions: read-out: JAK2 Ki
# T4 construct: made in house; host or cells: SF9 insect cells (baculovirus)
# T4 sequence (O60674 812-1132): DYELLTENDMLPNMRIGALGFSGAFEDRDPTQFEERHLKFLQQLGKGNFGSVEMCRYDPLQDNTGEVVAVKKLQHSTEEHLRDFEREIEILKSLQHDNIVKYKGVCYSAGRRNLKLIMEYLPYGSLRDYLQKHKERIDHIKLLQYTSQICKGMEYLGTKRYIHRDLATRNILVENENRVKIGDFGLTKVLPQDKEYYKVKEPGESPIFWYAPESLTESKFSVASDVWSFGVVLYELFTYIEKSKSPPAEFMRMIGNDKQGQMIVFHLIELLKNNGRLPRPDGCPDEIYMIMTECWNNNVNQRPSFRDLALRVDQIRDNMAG
# T3 sequence (P23458 852-1154): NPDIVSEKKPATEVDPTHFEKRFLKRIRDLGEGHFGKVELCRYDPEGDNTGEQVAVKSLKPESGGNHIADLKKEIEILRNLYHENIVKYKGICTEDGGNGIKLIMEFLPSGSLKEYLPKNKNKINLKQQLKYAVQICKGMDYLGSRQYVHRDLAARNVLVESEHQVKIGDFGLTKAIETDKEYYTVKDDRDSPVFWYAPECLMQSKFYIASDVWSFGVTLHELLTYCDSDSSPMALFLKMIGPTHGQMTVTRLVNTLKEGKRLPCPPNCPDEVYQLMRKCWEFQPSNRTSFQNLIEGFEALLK
# T2 sequence (P52333 783-1124): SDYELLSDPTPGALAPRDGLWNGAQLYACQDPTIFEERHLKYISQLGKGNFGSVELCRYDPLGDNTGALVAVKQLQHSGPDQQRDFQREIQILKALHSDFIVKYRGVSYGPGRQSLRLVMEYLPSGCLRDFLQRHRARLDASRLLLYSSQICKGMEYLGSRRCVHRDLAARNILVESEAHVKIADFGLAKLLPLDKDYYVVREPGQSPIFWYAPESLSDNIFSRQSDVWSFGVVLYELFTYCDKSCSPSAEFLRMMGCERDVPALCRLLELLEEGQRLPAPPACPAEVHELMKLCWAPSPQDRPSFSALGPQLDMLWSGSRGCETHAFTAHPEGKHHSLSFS
Compound,Ki (TYK2) [nM],Ki (JAK3) [nM],Ki (JAK1) [nM],Ki (JAK2) [nM]
"O=C(NCCc1nc2cnc3[nH]ccc3c2n1C1CCCCC1)C1CC1(F)F (racemic) [Example 515, 2,2-Difluoro-cyclopropanecarboxylic acid [2-(1-cyclohexyl-1,6-dihydro-1,3,5,6-tetraaza-as-indacen-2-yl)-ethyl]-amide]",25.2,120,2.41,43.5
"N#CCCN1CCC(n2c(Cc3cccc(C#N)c3)nc3cnc4[nH]ccc4c32)CC1 [Example 405, 3-{1-[1-(2-Cyano-ethyl)-piperidin-4-yl]-1,6-dihydro-1,3,5,6-tetraaza-as-indacen-2-ylmethyl}-benzonitrile]",445,524,30.6,252
"CCNC(=O)Cc1nc2cnc3[nH]ccc3c2n1C1CCCOC1 (racemic) [Example 962, N-Ethyl-2-[1-(tetrahydro-pyran-3-yl)-1,6-dihydro-1,3,5,6-tetraaza-as-indacen-2-yl]-acetamide]",399,177,35.8,208
"N#CCCN1CCC(n2c(CC3CCCC3)nc3cnc4[nH]ccc4c32)CC1 [Example 116, 3-[4-(2-Cyclopentylmethyl-6H-1,2,3,5,6-tetraaza-as-indacen-1-yl)-piperidin-1-yl]-propionitrile]",322,58,19.7,76.9
"O=S(=O)(Cc1ccccc1)N1CCC(n2cnc3cnc4[nH]ccc4c32)CC1 [Example 449, 1-(1-Phenylmethanesulfonyl-piperidin-4-yl)-1,6-dihydro-1,3,5,6-tetraaza-as-indacene]",58.2,32.6,3.5,8.22
"CN(C)CCOC(=O)N[C@H]1CC[C@H](n2cnc3cnc4[nH]ccc4c32)CC1 [Example 358, [4-(6H-1,3,5,6-Tetraaza-as-indacen-1-yl)-cyclohexyl]-carbamic acid 2-dimethylamino-ethyl ester]",147,434,22.2,82.6
"CC(O)c1nc2cnc3[nH]ccc3c2n1C1CCN(CC(=O)N2CCCCC2)CC1 (racemic) [Example 529, 2-{4-[2-(1-Hydroxy-ethyl)-6H-1,3,5,6-tetraaza-as-indacen-1-yl]-piperidin-1-yl}-1-piperidin-1-yl-ethanone]",2170,561,19.6,284
"O=C(c1cccnc1)N1CCC[C@@H](n2cnc3cnc4[nH]ccc4c32)C1 [Example 31, Pyridin-3-yl-[(R)-3-(6H-1,3,5,6-tetraaza-as-indacen-1-yl)-piperidin-1-yl]methanone]",159,419,13.2,25.9
"N#CCCN1CCC(n2c(CC(=O)N3CCC(F)(F)CC3)nc3cnc4[nH]ccc4c32)CC1 [Example 240, 3-(4-{2-[2-(4,4-Difloro-piperidin-1-yl)-2-oxo-ethyl]-6H-1,3,5,6-tetraaza-as-indacen-1-yl)-piperidin-1-yl]-propionitrile]",72.7,7.35,6.92,56
"O=C(Cc1nc2cnc3[nH]ccc3c2n1C1CCCOC1)N1CCC1 (racemic) [Example 967, 1-Azetidin-1-yl-2-[1-(tetrahydro-pyran-3-yl)-1,6-dihydro-1,3,5,6-tetraaza-as-indacen-2-yl]-ethanone]",1060,484,131,776
"COC(=O)N1CCCC(n2c([C@@H](C)O)nc3cnc4[nH]ccc4c32)C1 (stereo partly drawn) [Example 670, (R)-3-[2-((R)-1-Hydroxy-ethyl)-6H-1,2,3,5,6-tetraaza-as-indacen-1-yl]-piperidine-1-carboxylic acid methyl ester]",1520,2170,397,1750
"FC1CNCCC1n1nnc2cnc3[nH]ccc3c21 (racemic) [Example 525, 1-(3-Fluoro-piperidin-4-yl)-l,6-dihydro-1,2,3,5,6-pentaaza-as-indacene]",96.8,87.6,12.3,33.2
"N#CCC(=O)NC1CCC(n2cnc3cnc4[nH]ccc4c32)C1 (racemic) [Example 629, Racemic trans 2-cyano-N-[3-(6H-1,2,3,5,6-tetraaza-as-indacen-1-yl)-cyclopentyl]-acetamide]",32,11,1.36,4.99
"O=C(c1ccccc1)N1CCC[C@@H](n2cnc3cnc4[nH]ccc4c32)C1 [Example 6, Phenyl-[(R)-3-(6H-1,2,3,5,6-tetraaza-as-indacen-1-yl)-piperidin-1-yl]-methanone]",134,373,11.9,21.4

# Continued by falling Ki (TYK2), values first:
Ki (TYK2) [nM],Ki (JAK3) [nM],Ki (JAK1) [nM],Ki (JAK2) [nM],Compound
859,609,88.1,441,"Cc1nc2cnc3[nH]ccc3c2n1C1CCN(C(=O)NCC(F)(F)F)CC1 [Example 764, 4-(2-Methyl-6H-1,3,5,6-tetraaza-as-indacen-1-yl)-piperidine-1-carboxylic acid (2,2,2-trifluoro-ethyl)-amide]"
415,97.7,16.2,106,"CC(C)S(=O)(=O)NCc1nc2cnc3[nH]ccc3c2n1C1CCN(CCC#N)CC1 [Example 495, Propane-2-sulfonic acid {1-[1-(2-cyano-ethyl)-piperidin-4-yl]-1,6-dihydro-1,3,5,6-tetraaza-as-indacen-2-ylmethyl}-amide]"
262,514,18.5,78.5,"O=C([C@@H]1COCCN1)N1CCC(n2cnc3cnc4[nH]ccc4c32)CC1 [Example 455, (S)-Morpholin-3-yl-[4-(6H-1,3,5,6-tetraaza-as-indacen-1-yl)-piperidin-1-yl]-methanone]"
180,5.74,3.33,37.7,"Cc1cc(CN2CCC(n3c(C(C)O)nc4cnc5[nH]ccc5c43)C(F)C2)no1 (stereo not drawn) [Example 911, 1-{1-[3-Fluoro-1-(5-methyl-isoxazol-3-ylmethyl)-piperidin-4-yl]-1,6-dihydro-1,3,5,6-tetraaza-as-indacen-2-yl}-ethanol]"
140,6.73,3.32,32.1,"Cc1cc(CN2CCC(n3c([C@@H](C)O)nc4cnc5[nH]ccc5c43)CC2)no1 [Example 899, (R)-1-{1-[1-(5-Methyl-isoxazol-3-ylmethyl)-piperidin-4-yl]-1,6-dihydro-1,3,5,6-tetraaza-as-indacen-2-yl}-ethanol]"
72.7,52.5,4.22,11.7,"CN(CC(F)F)C(=O)NC1CCC(n2cnc3cnc4[nH]ccc4c32)CC1 (stereo not drawn) [Example 747, 1-(2,2-difluoro-ethyl)-1-methyl-3-[4-(6H-1,3,5,6-tetraaza-as-indacen-1-yl)-cyclohexyl]-urea]"
7.39,10.4,1.53,5.1,"N#CCCN1CCC(n2c(CO)nc3cnc4[nH]ccc4c32)CC1 [Example 239, 3-[4-(2-Hydroxymethyl-6H-1,3,5,6-tetraaza-as-indacen-1-yl)-piperidin-1-yl]-propionitrile]"
